Assays:
BMPR2 = target: T1, BMPR2 (Homo sapiens, UniProt Q13873); settings: binder
T1 sequence (Q13873 1-1038): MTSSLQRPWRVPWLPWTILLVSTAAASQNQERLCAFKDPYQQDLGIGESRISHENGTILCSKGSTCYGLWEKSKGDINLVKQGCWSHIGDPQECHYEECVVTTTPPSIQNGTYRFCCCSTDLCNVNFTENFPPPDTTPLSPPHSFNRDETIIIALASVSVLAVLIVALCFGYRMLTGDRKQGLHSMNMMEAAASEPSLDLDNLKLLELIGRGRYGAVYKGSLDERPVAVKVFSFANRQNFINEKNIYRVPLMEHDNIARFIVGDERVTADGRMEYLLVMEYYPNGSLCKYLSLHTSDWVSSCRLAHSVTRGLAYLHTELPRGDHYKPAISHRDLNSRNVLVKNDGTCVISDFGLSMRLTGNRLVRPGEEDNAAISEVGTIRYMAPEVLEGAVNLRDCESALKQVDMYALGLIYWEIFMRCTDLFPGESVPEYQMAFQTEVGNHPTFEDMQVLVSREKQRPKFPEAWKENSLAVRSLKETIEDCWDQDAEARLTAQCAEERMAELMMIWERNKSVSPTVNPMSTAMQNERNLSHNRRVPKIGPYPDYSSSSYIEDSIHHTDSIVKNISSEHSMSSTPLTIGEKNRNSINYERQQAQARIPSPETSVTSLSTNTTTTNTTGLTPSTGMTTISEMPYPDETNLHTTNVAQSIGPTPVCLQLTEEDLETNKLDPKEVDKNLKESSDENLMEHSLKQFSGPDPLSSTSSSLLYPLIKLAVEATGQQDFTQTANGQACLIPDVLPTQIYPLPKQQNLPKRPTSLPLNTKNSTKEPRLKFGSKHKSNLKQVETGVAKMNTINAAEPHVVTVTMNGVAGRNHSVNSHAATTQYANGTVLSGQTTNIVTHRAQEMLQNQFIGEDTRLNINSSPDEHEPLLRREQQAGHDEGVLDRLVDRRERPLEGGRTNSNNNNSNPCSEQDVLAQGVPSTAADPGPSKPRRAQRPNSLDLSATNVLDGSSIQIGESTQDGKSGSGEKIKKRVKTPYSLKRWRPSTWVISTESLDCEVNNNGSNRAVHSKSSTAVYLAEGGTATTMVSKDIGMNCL

GAK = target: T2, GAK (Homo sapiens, UniProt O14976); settings: binder
T2 sequence (O14976 1-1311): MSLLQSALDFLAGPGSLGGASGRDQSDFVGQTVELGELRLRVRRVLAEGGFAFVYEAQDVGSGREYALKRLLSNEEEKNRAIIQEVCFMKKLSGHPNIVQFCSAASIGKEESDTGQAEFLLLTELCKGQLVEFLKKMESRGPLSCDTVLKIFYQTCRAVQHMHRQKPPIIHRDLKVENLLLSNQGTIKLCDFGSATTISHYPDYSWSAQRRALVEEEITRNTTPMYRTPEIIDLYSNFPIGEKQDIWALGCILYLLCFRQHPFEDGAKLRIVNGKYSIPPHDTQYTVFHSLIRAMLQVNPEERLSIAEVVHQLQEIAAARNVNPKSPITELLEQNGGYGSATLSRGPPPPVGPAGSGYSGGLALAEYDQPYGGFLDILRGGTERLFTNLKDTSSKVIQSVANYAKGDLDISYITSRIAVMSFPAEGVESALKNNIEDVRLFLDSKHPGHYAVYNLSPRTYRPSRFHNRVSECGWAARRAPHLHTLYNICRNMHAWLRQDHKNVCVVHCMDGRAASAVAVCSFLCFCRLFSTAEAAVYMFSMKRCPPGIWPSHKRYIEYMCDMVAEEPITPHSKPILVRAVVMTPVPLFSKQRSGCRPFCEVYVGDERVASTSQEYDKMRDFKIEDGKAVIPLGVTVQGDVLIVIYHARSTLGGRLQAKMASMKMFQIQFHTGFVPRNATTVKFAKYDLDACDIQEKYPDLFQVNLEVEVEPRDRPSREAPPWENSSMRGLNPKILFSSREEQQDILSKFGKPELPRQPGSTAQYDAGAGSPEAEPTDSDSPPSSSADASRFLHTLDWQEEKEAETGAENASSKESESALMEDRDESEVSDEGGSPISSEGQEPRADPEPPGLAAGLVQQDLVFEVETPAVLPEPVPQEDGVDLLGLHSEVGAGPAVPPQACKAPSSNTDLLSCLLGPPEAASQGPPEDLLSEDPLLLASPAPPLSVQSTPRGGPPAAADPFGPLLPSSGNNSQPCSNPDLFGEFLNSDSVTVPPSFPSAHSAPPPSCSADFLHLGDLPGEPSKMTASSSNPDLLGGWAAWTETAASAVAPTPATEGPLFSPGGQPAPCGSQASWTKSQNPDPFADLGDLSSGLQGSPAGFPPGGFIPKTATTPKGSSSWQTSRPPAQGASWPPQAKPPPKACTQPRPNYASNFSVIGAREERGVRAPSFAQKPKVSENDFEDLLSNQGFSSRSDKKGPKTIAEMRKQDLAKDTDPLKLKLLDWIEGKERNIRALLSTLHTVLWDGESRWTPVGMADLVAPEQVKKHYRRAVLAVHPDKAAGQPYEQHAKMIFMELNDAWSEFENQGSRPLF

## Cc1cccc(-c2ccc(-c3cc4cnc(Nc5cc(C(F)(F)F)ccc5C)nc4n(CCCCN)c3=O)c(Cl)c2)n1 [compound 28, 8-(4-Aminobutyl)-6-(2-chloro-4-(6-methylpyridin-2-yl)phenyl)-2-((2-methyl-5-(trifluoromethyl)phenyl)amino)pyrido[2,3-d]pyrimidin-7(8H)-one]
BMPR2
  ΔTm 28: -0.1 °C
GAK
  ΔTm 28: 9.4 °C

## Cc1cccc(-c2ccc(-c3cc4cnc(Nc5ccc(CCCO)cc5)nc4n(CCCCN)c3=O)c(Cl)c2)n1 [compound 30, 8-(4-Aminobutyl)-6-(2-chloro-4-(6-methylpyridin-2-yl)phenyl)-2-((4-(3-hydroxypropyl)phenyl)amino)pyrido[2,3-d]pyrimidin-7(8H)-one]
BMPR2
  ΔTm 30: -0.2 °C
GAK
  ΔTm 30: 13.2 °C

## Cc1cccc(-c2ccc(-c3cc4cnc(Nc5ccc(C)c(O)c5)nc4n(CCCCN)c3=O)c(Cl)c2)n1 [compound 32, 8-(4-Aminobutyl)-6-(2-chloro-4-(6-methylpyridin-2-yl)phenyl)-2-((3-hydroxy-4-methylphenyl)amino)pyrido[2,3-d]pyrimidin-7(8H)-one]
BMPR2
  ΔTm 32: -0.4 °C
GAK
  ΔTm 32: 13.3 °C

## Cc1cccc(-c2ccc(-c3cc4cnc(NCCCN5CCCC5=O)nc4n(CCCCN)c3=O)c(Cl)c2)n1 [compound 27, MR30]
BMPR2
  ΔTm MR30 (27): -0.1 °C
GAK
  ΔTm MR30 (27): 4.3 °C

## Cc1cccc(-c2ccc(-c3cc4cnc(Nc5ccc(O)cc5)nc4n(CCCCN)c3=O)c(Cl)c2)n1 [compound 31, 8-(4-Aminobutyl)-6-(2-chloro-4-(6-methylpyridin-2-yl)phenyl)-2-((4-hydroxyphenyl)amino) pyrido[2,3-d]pyrimidin-7(8H)-one]
BMPR2
  ΔTm 31: 1.0 °C
GAK
  ΔTm 31: 13.3 °C

## Cc1cccc(-c2ccc(-c3cc4cnc(NCCCN5CCNCC5)nc4n(CCCCN)c3=O)c(Cl)c2)n1 [compound 29, 8-(4-Aminobutyl)-6-(2-chloro-4-(6-methylpyridin-2-yl)phenyl)-2-((3-(piperazin-1-yl)propyl)amino)pyrido[2,3-d]pyrimidin-7(8H)-one]
BMPR2
  ΔTm 29: 0.0 °C
GAK
  ΔTm 29: 4.2 °C

Reference: publication doi:10.1101/2023.11.24.568596v1 (biorxiv, 2023)
